Test results from patent US7973069B2 (PTC Therapeutics, Inc., priority 2004, dated 2011).
Several values for one entry are separate records, joined by “and”; a condition that tells them apart may be missing. Identical values can stand only once.

These compounds were tested on HCV replicon.
Assay type: cell-based

Row | SMILES | IC50
1 | COc1ccc2c(c1)c(C#N)c(-c1ccc(NC(=O)NC(C)C)cc1)n2C1CCC1 [Compound 1163] | 0.5 to 2 µM
2 | CCn1c(-c2ccc(N3CCCS3(=O)=O)cc2)c(C#N)c2ccc(NC(=O)OC(C)(C)C)cc21 [Compound 1049] | < 0.5 µM
3 | CC(C)NC(=O)Nc1ccc(-c2c(C#N)c3ccc(OCCN(C)C)cc3n2C2CCC2)cc1 [Compound 1319] | < 0.5 µM
4 | CCOc1ccc2c(C#N)c(-c3ccc(NC(=O)OCc4ccccn4)cc3)n(C3CCC3)c2c1 [Compound 1264] | < 0.5 µM
5 | CC(C)NC(=O)Nc1ccc(-c2c(C#N)c3ccc(OCCn4cncn4)cc3n2C2CCC2)cc1 [Compound 1318] | < 0.5 µM
6 | CCn1c(-c2cccc(N3CCNC3=O)c2)c(C#N)c2ccc(OCCCN3CCOCC3)cc21 [Compound 1068] | 0.5 to 2 µM
7 | CCOc1ccc2c(C#N)c(-c3ccc(NC(=O)OCC4CCCO4)cc3)n(C3CCC3)c2c1 (stereo not drawn) [Compound 1240] | < 0.5 µM
8 | CCN(c1ccc(-c2c(C#N)c3ccc(C(F)(F)F)cc3n2CC)cc1)S(C)(=O)=O [Compound 1003] | 0.5 to 2 µM
9 | CCNC(=O)Nc1ccc(-c2c(C#N)c3cc(OC)ccc3n2CC)cc1 [Compound 1009] | 0.5 to 2 µM
10 | CC(C)NC(=O)Nc1ccc(-c2c(C#N)c3ccc(OCCCN4CCCC4)cc3n2C2CCC2)cc1 [Compound 1309] | < 0.5 µM
11 | CCCCn1c(-c2cccc(NC(=O)NCCc3ccccc3)c2)c(C#N)c2ccc(OCC)cc21 [Compound 1024] | < 0.5 µM
12 | CCn1c(-c2ccc(NS(=O)(=O)C3CC3)cc2)c(C#N)c2cc3c(cc21)OCO3 [Compound 1038] | 0.5 to 2 µM
13 | CC(C)OC(=O)Nc1ccc(-c2c(C#N)c3ccc(OCCCN4CCOCC4)cc3n2C2CCC2)cc1 [Compound 1253] | 0.5 to 2 µM
14 | C[C@@H](OC(=O)Nc1ccc(-c2c(C#N)c3ccc(Oc4cnccn4)cc3n2C2CC2)cc1)C1CC1 [Compound 2322] | < 0.5 µM
15 | CCOc1ccc2c(C#N)c(-c3ccc(NC(=O)CCc4ccccc4)cc3)n(CC)c2c1 [Compound 901] | 0.5 to 2 µM
16 | CCOC(=O)Nc1ccc(-c2c(C#N)c3cc(OC)ccc3n2C2CCC2)cc1 [Compound 1176] | 0.5 to 2 µM
17 | CCOc1ccc2c(C#N)c(-c3ccc(NC(=O)OC4CCCC4)nc3)n(C3CCC3)c2c1 [Compound 1145] | 0.5 to 2 µM
18 | N#Cc1c(-c2ccc(NC(=O)NC3CCC3)cc2)n(C2CCC2)c2cc(OCC3CCCO3)ccc12 (stereo not drawn) [Compound 1288] | < 0.5 µM
19 | CCCCS(=O)(=O)Nc1ccc(-c2c(C#N)c3ccc(OC(F)(F)F)cc3n2CC)cc1 [Compound 885] | < 0.5 µM
20 | CCCCOC(=O)Nc1ccc(-c2c(C#N)c3cc(OCC)ccc3n2C2CCC2)cc1 [Compound 1198] | < 0.5 µM
21 | CCCOC(=O)Nc1ccc(-c2c(C#N)c3ccc(OC)cc3n2COC)cc1 [Compound 993] | 0.5 to 2 µM
22 | CCOc1ccc2c(C#N)c(-c3ccc(NC(=O)OCC4CCC4)cc3)n(C3CCC3)c2c1 [Compound 1158] | < 0.5 µM
23 | CCn1c(-c2cccc(NC(=O)OCCCl)c2)c(C#N)c2ccc(OCCCN3CCOCC3)cc21 [Compound 1044] | < 0.5 µM
24 | CCOc1ccc2c(C#N)c(-c3ccc(NC(=O)OC4CCOC4)cc3)n(C3CCC3)c2c1 (stereo not drawn) [Compound 1215] | < 0.5 µM
25 | CCCS(=O)(=O)Nc1ccc(-c2c(C#N)c3ccc(OC(F)F)cc3n2C(C)C)cc1 [Compound 867] | 0.5 to 2 µM
26 | CCCOc1ccc2c(C#N)c(-c3ccc(NC(=O)OC4CCOCC4)cc3)n(C(C)C)c2c1 [Compound 1248] | < 0.5 µM

Row | SMILES | IC50
27 | CCOc1ccc2c(C#N)c(-c3ccc(NC(=O)OC(C)C)cc3)n(C3CCCC3)c2c1 [Compound 1129] | < 0.5 µM
28 | CCOc1ccc2c(C#N)c(-c3ccc(NC(=O)OCC4(C)CC4)cc3)n(C3CCC3)c2c1 [Compound 1208] | < 0.5 µM
29 | CCOc1ccc2c(C#N)c(-c3ccc(NC(=O)OCc4ccccc4)cc3)n(CC3CC3)c2c1 [Compound 1155] | 0.5 to 2 µM
30 | CCOc1ccc2c(C#N)c(-c3ccc(NC(=O)OC4CCCC4)cc3)n(C3CCCC3)c2c1 [Compound 1211] | < 0.5 µM
31 | CCn1c(-c2ccc(N3CCCS3(=O)=O)cc2)c(C#N)c2ccc(C(F)(F)F)cc21 [Compound 969] | < 0.5 µM
32 | CC(C)NC(=O)Nc1ccc(-c2c(C#N)c3ccc(OCCn4ccnc4)cc3n2C2CCC2)cc1 [Compound 1322] | < 0.5 µM
33 | CC(C)OC(=O)Nc1ccc(-c2c(C#N)c3ccc(OCCNC4CC4)cc3n2C2CCC2)cc1 [Compound 1279] | < 0.5 µM
34 | CCCS(=O)(=O)Nc1ccc(-c2c(C#N)c3ccc(OCC)cc3n2C2CCCC2)cc1 [Compound 1140] | 0.5 to 2 µM
35 | CCOc1ccc2c(C#N)c(-c3cccc(N4CCCS4(=O)=O)c3)n(CC)c2c1 [Compound 907] | 0.5 to 2 µM
36 | CCOc1ccc2c(C#N)c(-c3ccc(NC(=O)C4CC4)cc3)n(CC)c2c1 [Compound 897] | 0.5 to 2 µM
37 | CCOc1ccc2c(c1)c(C#N)c(-c1ccc(NC(=O)OC(C)C)cc1)n2C1CCC1 [Compound 1195] | < 0.5 µM
38 | COc1ccc2c(C#N)c(-c3ccc(NS(=O)(=O)C(C)C)cc3)n(CC3CCCC3)c2c1 [Compound 891] | 0.5 to 2 µM
39 | CC(C)OC(=O)Nc1ccc(-c2c(C#N)c3ccc(OCc4cccnc4)cc3n2C2CCC2)cc1 [Compound 1218] | < 0.5 µM
40 | CC(C)OC(=O)Nc1ccc(-c2c(C#N)c3ccc(OCC4CCCO4)cc3n2C2CCC2)cc1 (stereo not drawn) [Compound 1285] | < 0.5 µM
41 | CCOc1ccc2c(C#N)c(-c3ccc(NC(C)=O)cc3)n(CC)c2c1 [Compound 895] | 0.5 to 2 µM
42 | CCOc1ccc2c(C#N)c(-c3ccc(NC(=O)NC4CCC4)cc3)n(C3CCC3)c2c1 [Compound 1168] | < 0.5 µM
43 | COc1ccc2c(c1)c(C#N)c(-c1ccc(NS(=O)(=O)C(C)C)cc1)n2C1CCC1 [Compound 1231] | 0.5 to 2 µM
44 | CCn1c(-c2ccc(NS(=O)(=O)C3CC3)c(C)c2)c(C#N)c2ccc(OC)cc21 [Compound 962] | 0.5 to 2 µM
45 | CCn1c(-c2ccc(NC(=O)N3CCCC3)cc2)c(C#N)c2ccc(OC)cc21 [Compound 1089] | 0.5 to 2 µM
46 | CCOP(=O)(Nc1ccc(-c2c(C#N)c3ccc(OC)cc3n2CC)cc1)OCC [Compound 943] | 0.5 to 2 µM
47 | CCOc1ccc2c(C#N)c(-c3ccc(NS(=O)(=O)C4CC4)cc3)n(C3CCC3)c2c1 [Compound 934] | < 0.5 µM
48 | CC(C)S(=O)(=O)Nc1ccc(-c2c(C#N)c3ccc(OC(F)F)cc3n2CC2CC2)cc1 [Compound 941] | < 0.5 µM
49 | CCOc1ccc2c(C#N)c(-c3ccc(N4CCCS4(=O)=O)cc3)n(C3CCC3)c2c1 [Compound 980] | > 2 µM
50 | CC(C)n1c(-c2ccc(NC(=O)O[C@H](C)C3CC3)cc2)c(C#N)c2ccc(Oc3ncccn3)cc21 [Compound 2208] | < 0.5 µM
51 | CCOc1ccc2c(C#N)c(-c3ccc(NC(=O)Oc4ccc(OC)cc4)cc3)n(C3CCC3)c2c1 [Compound 978] | 0.5 to 2 µM
52 | CCOC(=O)Nc1ccc(-c2c(C#N)c3ccc(OC(F)(F)F)cc3n2CC)cc1 [Compound 887] | 0.5 to 2 µM

Row | SMILES | IC50
53 | CCCOC(=O)Nc1ccc(-c2c(C#N)c3ccc(OCC)cc3n2C2CCCC2)cc1 [Compound 1128] | < 0.5 µM
54 | CCOc1ccc2c(C#N)c(-c3ccc(NC(=O)OCCN4CCOCC4)cc3)n(C3CCC3)c2c1 [Compound 1192] | 0.5 to 2 µM
55 | CCCCNC(=O)Nc1ccc(-c2c(C#N)c3ccc(OCC)cc3n2CCCC)cc1 [Compound 1018] | < 0.5 µM
56 | N#Cc1c(-c2ccc(NC(=O)NC3CCC3)cc2)n(C2CCC2)c2cc(OCCCCN3CCCC3)ccc12 [Compound 1259] | < 0.5 µM
57 | CCn1c(-c2ccc(N3CCCS3(=O)=O)cc2)c(C#N)c2ccc(OCCn3cccn3)cc21 [Compound 908] | 0.5 to 2 µM
58 | CCCOc1ccc2c(C#N)c(-c3ccc(NC(=O)OCC4CC4)cc3)n(C(C)C)c2c1 [Compound 1241] | < 0.5 µM
59 | CCOc1ccc2c(C#N)c(-c3ccc(NC(=O)C4CCC4)cc3)n(CC)c2c1 [Compound 899] | 0.5 to 2 µM
60 | CCOc1ccc2c(C#N)c(-c3ccc(NS(=O)(=O)C4CC4)cc3)n(C3CCCC3)c2c1 [Compound 1141] | 0.5 to 2 µM
61 | CCCOc1ccc2c(C#N)c(-c3ccc(NC(=O)OC4CCCC4)cc3)n(C(C)C)c2c1 [Compound 1205] | < 0.5 µM
62 | CCCNC(=O)Nc1ccc(-c2c(C#N)c3ccc(OCC)cc3n2C2CCCC2)cc1 [Compound 1144] | < 0.5 µM
63 | CCOc1ccc2c(c1)c(C#N)c(-c1ccc(NC(=O)OCC3(C)CC3)cc1)n2C1CCC1 [Compound 1294] | < 0.5 µM
64 | CCCn1c(-c2ccc(NC(=O)NCC)cc2)c(C#N)c2ccc(OCC)cc21 [Compound 1094] | 0.5 to 2 µM
65 | N#Cc1c(-c2ccc(NC(=O)OC3CCC3)cc2)n(C2CCC2)c2cc(OCCCCN3CCCC3)ccc12 [Compound 1258] | < 0.5 µM
66 | CCNC(=O)Nc1ccc(-c2c(C#N)c3ccc(OCC)cc3n2CC2CC2)cc1 [Compound 1156] | < 0.5 µM
67 | CCOC(=O)Nc1ccc(-c2c(C#N)c3ccc(OC)cc3n2CC2CC2)cc1 [Compound 984] | 0.5 to 2 µM
68 | CCOc1ccc2c(C#N)c(-c3ccc(NC(=O)OCCCN4CCOCC4)cc3)n(C3CCC3)c2c1 [Compound 1210] | < 0.5 µM
69 | CC(C)OC(=O)Nc1ccc(-c2c(C#N)c3ccc(OCCn4ccnc4)cc3n2C2CCC2)cc1 [Compound 1275] | < 0.5 µM
70 | CC(C)n1c(-c2ccc(NS(=O)(=O)C3CC3)cc2)c(C#N)c2ccc(OC(F)F)cc21 [Compound 868] | < 0.5 µM
71 | CCOc1ccc2c(C#N)c(-c3ccc(NC(=O)OC(C)C)cc3)n(C(C)C)c2c1 [Compound 1058] | < 0.5 µM
72 | CCOc1ccc2c(c1)c(C#N)c(-c1ccc(NC(=O)NCCc3ccccc3)cc1)n2C1CCC1 [Compound 1227] | < 0.5 µM
73 | CCn1c(-c2ccc(NC(=O)OC)cc2)c(C#N)c2ccc(OCCCN3CCOCC3)cc21 [Compound 1112] | 0.5 to 2 µM
74 | CCOC(=O)Nc1ccc(-c2c(C#N)c3ccc(OC)cc3n2C2CCC2)cc1 [Compound 1073] | 0.5 to 2 µM
75 | CCCNC(=O)Nc1ccc(-c2c(C#N)c3ccc(OCC)cc3n2CCC)cc1 [Compound 1095] | < 0.5 µM
76 | CCCS(=O)(=O)Nc1ccc(-c2c(C#N)c3ccc(OCC)cc3n2C2CCC2)cc1 [Compound 932] | < 0.5 µM
77 | CCn1c(-c2ccc(NS(=O)(=O)CCCCl)cc2)c(C#N)c2ccc(OC(F)F)cc21 [Compound 930] | < 0.5 µM
78 | CCS(=O)(=O)Nc1ccc(-c2c(C#N)c3cc(OC)ccc3n2C2CCC2)cc1 [Compound 1161] | < 0.5 µM and 0.5 to 2 µM
